According to US20250368667A1, “USP1 INHIBITOR” (Shanghai Qilu Pharmaceutical Research and Development …, priority 2022, published 2025):

What follows are compounds tested against recombinant human His6-USP1/His6-UAF1 composite protein (Homo sapiens (Human), UniProt O94782) (assay: USP1 enzyme activity detection (Ub-Rho fluorescence)). Conditions: USP1/UAF1, Ub-Rho substrate 300 nM, 1 hour pre-incubation; read-out: IC50 (enzymatic inhibition of USP1).
Type: biochemical

Chain of recombinant human His6-USP1/His6-UAF1 composite protein (O94782 whole entry): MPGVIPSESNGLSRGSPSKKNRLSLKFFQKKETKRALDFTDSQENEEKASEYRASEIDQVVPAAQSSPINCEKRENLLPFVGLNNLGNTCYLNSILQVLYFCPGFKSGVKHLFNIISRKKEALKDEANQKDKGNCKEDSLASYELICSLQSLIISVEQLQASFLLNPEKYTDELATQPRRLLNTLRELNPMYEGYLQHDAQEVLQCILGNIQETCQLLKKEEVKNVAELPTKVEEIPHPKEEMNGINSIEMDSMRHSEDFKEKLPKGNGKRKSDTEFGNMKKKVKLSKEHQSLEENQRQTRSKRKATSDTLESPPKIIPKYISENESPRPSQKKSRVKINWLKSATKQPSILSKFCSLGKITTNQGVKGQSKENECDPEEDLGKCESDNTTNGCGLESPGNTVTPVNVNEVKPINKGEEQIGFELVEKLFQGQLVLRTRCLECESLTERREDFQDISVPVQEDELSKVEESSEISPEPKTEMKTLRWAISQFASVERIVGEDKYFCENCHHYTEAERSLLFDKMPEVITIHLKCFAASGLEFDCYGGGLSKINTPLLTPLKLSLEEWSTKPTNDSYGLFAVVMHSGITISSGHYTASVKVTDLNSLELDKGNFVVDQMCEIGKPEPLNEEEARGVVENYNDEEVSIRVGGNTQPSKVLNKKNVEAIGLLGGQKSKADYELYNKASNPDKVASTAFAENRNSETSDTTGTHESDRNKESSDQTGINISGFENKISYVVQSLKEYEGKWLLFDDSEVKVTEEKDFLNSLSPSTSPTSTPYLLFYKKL
Chain of recombinant human His6-USP1/His6-UAF1 composite protein (Q8TAF3 whole entry partner): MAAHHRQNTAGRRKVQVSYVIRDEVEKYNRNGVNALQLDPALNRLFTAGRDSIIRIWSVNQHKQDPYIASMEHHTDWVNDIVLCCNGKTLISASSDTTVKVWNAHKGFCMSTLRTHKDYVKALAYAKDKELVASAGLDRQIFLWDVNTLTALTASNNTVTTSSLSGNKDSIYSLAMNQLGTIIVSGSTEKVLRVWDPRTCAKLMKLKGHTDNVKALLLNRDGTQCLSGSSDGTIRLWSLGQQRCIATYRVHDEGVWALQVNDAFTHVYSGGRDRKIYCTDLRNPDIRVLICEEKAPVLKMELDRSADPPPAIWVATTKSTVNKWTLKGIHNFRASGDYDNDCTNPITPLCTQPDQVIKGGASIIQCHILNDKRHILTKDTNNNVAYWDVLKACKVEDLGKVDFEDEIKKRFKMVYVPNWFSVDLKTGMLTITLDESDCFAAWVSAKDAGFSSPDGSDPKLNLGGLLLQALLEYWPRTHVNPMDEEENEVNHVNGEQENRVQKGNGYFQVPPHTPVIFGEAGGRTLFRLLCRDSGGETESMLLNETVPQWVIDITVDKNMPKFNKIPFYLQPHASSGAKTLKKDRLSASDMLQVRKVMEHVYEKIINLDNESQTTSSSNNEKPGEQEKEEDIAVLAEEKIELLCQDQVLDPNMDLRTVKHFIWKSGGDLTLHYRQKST

Row | Structure (SMILES) | IC50
1 | COc1ncnc(C2CC2)c1-c1ncc2c3ccc(C(C)(C)O)cc3n(Cc3ccc(-c4nc(C(F)(F)F)cn4C)cc3)c2n1 [Compound 38] | 12.1 nM
2 | CCn1cc(C(F)(F)F)nc1-c1ccc(Cn2c3cc(C(F)(F)F)ccc3c3cnc(-c4c(OC)ncnc4C4CC4)nc32)cc1 [Compound 45] | 4.4 nM
3 | COc1ncnc(C2CC2)c1-c1ncc2c3cccc(F)c3n(Cc3ccc(-n4nc(C(F)(F)F)cc4C)cc3)c2n1 [Compound 49] | 21.2 nM
4 | COc1ncnc(C2CC2)c1-c1ncc2c3ccc(Cl)cc3n(Cc3ccc(-c4nc(C(F)(F)F)cn4C)cc3)c2n1 [Compound 54] | 9.88 nM
5 | COc1ncnc(C2CC2)c1-c1ncc2c3ccncc3n(Cc3ccc(-c4nc(C(F)(F)F)cn4C)cc3)c2n1 [Compound 55] | 7.9 nM
6 | COc1ncnc(C2CC2)c1-c1ncc2c3cnccc3n(Cc3ccc(-c4nc(C(F)(F)F)cn4C)cc3)c2n1 [Compound 57] | 14.8 nM
7 | COc1ncnc(C2CC2)c1-c1ncc2c3ccc(NS(C)(=O)=O)cc3n(Cc3ccc(-c4nc(C(F)(F)F)cn4C)cc3)c2n1 [Compound 59] | 7.21 nM
8 | COc1ncnc(C2CC2)c1-c1ncc2c3ccncc3n(Cc3ccc4c(c3)CCCn3cc(C(F)(F)F)nc3-4)c2n1 [Compound 61] | 3.14 nM
9 | COc1ncnc(C2CC2)c1-c1ncc2c3cccnc3n(Cc3ccc4c(c3)CCCn3cc(C(F)(F)F)nc3-4)c2n1 [Compound 63] | 2.74 nM
10 | COc1ncnc(C2CC2)c1-c1ncc2c3ccncc3n(Cc3ccc4c(c3)CCn3cc(C(F)(F)F)nc3-4)c2n1 [Compound 65] | 59.6 nM
11 | CCn1cc(C(F)(F)F)nc1-c1ccc(Cn2c3cnccc3c3cnc(-c4c(OC)ncnc4C4CC4)nc32)cc1 [Compound 66] | 1.62 nM
12 | COc1ncnc(C2CC2)c1-c1ncc2c3ccncc3n(Cc3ccc4c(ccn5cc(C(F)(F)F)nc45)c3)c2n1 [Compound 67] | 36.1 nM
13 | COc1ncnc(C2CC2)c1-c1ncc2c3ccncc3n(Cc3ccc4n3CCCn3cc(C(F)(F)F)nc3-4)c2n1 [Compound 68] | 39.2 nM
14 | COc1ncnc(C2CC2)c1-c1ncc2c3ccc(C#N)cc3n(Cc3ccc4c(c3)Cn3cc(C(F)(F)F)nc3-4)c2n1 [Compound 70] | 191 nM
15 | COc1ncnc(C2CC2)c1-c1ncc2c3ccncc3n(Cc3ccc4c(c3)Cn3cc(C(F)(F)F)nc3-4)c2n1 [Compound 71] | 108 nM

More lines, in order of falling IC50, values ahead:

Row | IC50 | Structure (SMILES)
16 | 35.2 nM | COc1ncnc(C2CC2)c1-c1ncc2c3ccc(C(F)(F)F)cc3n(Cc3ccc(-c4nc(C(F)(F)F)cn4C)cc3)c2n1 [Compound 41]
17 | 30.4 nM | COC(=O)c1ccc2c3cnc(-c4c(OC)ncnc4C4CC4)nc3n(Cc3ccc(-c4nc(C(F)(F)F)cn4C)cc3)c2c1 [Compound 42]
18 | 29.9 nM | COc1ncnc(C2CC2)c1-c1ncc2c3c(C#N)cccc3n(Cc3ccc(-c4nc(C(F)(F)F)cn4C)cc3)c2n1 [Compound 39]
19 | 15.1 nM | COc1ncnc(C2CC2)c1-c1ncc2c3ccc(C(F)F)cc3n(Cc3ccc(-c4nc(C(F)(F)F)cn4C)cc3)c2n1 [Compound 40]
20 | 5.9 nM | COc1ncnc(C2CC2)c1-c1ncc2c3ccc(C#N)cc3n(Cc3ccc(-c4nc(C(F)(F)F)cn4C(C)C)cc3)c2n1 [Compound 51]
21 | 5.58 nM | COc1ncnc(C2CC2)c1-c1ncc2c3cccnc3n(Cc3ccc(-c4nc(C(F)(F)F)cn4C)cc3)c2n1 [Compound 53]
22 | 5.34 nM | COc1ncnc(C2CC2)c1-c1ncc2c3sncc3n(Cc3ccc(-c4nc(C(F)(F)F)cn4C)cc3)c2n1 [Compound 60]
23 | 5.26 nM | COc1ncnc(C2CC2)c1-c1ncc2c3c(C(N)=O)cccc3n(Cc3ccc(-c4nc(C(F)(F)F)cn4C)cc3)c2n1 [Compound 47]
24 | 4.84 nM | CCn1cc(C(F)(F)F)nc1-c1ccc(Cn2c3cc(C#N)ccc3c3cnc(-c4c(OC)ncnc4C4CC4)nc32)cc1 [Compound 50]
25 | 4.22 nM | COc1ncnc(C2CC2)c1-c1ncc2c3cccc(Cl)c3n(Cc3ccc(-c4nc(C(F)(F)F)cn4C)cc3)c2n1 [Compound 44]
26 | 3.6 nM | COc1ncnc(C2CC2)c1-c1ncc2c3cccc(OC)c3n(Cc3ccc(-c4nc(C(F)(F)F)cn4C(C)C)cc3)c2n1 [Compound 46]
